Assay type in all cases: functional, organism-based
For data set [1], the target named is ATP-binding cassette sub-family C member 2 (Mus musculus, UniProt Q8VI47). Briefly: (§1) TP_TRANSPORTER: RT-PCR in vivo, liver of CD-1 mouse.
The target in data set [2] is ATP-binding cassette sub-family C member 3 (Mus musculus, UniProt B2RX12). The data set is described as §1.
For the next data set, the target named is T1, Bile salt export pump (Mus musculus, UniProt Q9QY30).
T1 sequence (Q9QY30 whole entry): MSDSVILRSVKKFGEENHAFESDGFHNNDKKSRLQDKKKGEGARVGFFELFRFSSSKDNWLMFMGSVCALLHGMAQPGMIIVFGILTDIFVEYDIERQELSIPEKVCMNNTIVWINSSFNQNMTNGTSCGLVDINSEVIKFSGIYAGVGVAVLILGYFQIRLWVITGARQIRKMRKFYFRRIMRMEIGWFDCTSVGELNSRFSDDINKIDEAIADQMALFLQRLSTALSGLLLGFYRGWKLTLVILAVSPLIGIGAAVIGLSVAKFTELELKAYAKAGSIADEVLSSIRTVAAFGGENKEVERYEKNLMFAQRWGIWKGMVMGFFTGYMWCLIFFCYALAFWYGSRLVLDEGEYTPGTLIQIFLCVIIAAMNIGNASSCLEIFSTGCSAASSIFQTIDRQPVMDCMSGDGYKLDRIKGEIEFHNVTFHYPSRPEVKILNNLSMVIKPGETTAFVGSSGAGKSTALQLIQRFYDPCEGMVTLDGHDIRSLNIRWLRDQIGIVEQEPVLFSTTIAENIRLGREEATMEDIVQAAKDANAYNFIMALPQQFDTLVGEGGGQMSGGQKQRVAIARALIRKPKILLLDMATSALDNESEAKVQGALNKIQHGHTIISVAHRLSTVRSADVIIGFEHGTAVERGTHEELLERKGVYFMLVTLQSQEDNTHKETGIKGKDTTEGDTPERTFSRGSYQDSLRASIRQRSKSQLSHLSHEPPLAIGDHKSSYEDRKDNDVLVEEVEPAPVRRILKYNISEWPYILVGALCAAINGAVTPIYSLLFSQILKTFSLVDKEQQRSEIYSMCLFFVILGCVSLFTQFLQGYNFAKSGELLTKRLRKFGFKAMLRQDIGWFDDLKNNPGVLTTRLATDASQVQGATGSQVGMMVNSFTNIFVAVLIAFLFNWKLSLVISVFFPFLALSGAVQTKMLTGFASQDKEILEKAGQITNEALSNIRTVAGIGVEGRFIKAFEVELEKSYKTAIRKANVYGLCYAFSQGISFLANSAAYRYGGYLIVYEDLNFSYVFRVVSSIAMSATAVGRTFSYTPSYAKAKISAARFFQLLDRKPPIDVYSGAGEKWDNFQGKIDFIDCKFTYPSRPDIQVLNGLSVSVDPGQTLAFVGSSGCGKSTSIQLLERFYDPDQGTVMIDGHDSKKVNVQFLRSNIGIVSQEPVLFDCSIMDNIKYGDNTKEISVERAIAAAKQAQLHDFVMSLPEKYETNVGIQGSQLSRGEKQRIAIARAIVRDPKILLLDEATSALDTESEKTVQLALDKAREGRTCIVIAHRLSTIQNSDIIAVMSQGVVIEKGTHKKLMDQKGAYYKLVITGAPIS
The description is as §1.

Data set [3] addresses T2, Solute carrier organic anion transporter family member 1A1 (Mus musculus, UniProt Q9QXZ6).
T2 sequence (Q9QXZ6 whole entry): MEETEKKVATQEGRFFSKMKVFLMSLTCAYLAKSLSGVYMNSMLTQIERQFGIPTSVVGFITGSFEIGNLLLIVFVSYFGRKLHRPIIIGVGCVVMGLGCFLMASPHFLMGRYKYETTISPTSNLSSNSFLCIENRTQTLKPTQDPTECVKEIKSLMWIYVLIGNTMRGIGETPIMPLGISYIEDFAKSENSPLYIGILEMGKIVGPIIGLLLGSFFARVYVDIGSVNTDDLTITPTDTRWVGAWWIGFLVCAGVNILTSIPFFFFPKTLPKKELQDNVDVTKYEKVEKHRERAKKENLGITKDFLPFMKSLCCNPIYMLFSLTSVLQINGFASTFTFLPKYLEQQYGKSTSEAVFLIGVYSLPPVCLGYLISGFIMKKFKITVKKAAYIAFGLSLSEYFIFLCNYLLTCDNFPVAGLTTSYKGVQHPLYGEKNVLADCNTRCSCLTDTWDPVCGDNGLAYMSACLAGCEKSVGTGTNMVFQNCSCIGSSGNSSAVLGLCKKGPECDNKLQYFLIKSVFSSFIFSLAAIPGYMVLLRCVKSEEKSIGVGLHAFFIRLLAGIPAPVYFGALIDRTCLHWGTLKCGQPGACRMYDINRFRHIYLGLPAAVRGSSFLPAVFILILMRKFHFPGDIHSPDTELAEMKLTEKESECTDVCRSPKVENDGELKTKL
The description is as §1.

Data set [4] deals with T3, Solute carrier organic anion transporter family member 1A4 (Mus musculus, UniProt Q9EP96).
T3 sequence (Q9EP96 whole entry): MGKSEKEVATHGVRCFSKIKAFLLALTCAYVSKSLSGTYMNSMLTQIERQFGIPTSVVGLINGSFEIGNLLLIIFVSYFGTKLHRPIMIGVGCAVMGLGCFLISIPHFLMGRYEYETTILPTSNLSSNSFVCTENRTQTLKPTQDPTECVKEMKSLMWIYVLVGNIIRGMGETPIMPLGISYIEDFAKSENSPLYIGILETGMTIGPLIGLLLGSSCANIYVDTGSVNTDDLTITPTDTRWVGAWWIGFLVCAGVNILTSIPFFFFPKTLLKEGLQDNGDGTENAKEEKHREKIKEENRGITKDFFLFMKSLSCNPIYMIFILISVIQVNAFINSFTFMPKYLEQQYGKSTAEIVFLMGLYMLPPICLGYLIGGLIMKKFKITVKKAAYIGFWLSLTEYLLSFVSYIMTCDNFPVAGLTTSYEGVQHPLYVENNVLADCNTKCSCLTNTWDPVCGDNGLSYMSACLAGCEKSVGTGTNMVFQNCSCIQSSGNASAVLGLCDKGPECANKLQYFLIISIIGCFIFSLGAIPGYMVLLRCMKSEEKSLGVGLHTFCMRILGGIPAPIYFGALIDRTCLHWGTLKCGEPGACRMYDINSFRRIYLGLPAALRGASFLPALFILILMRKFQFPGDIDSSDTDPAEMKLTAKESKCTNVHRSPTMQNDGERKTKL
The description is as §1.

Data set [5] has as its target Multidrug resistance-associated protein 1 (Mus musculus, UniProt O35379). The data set is described as §1.

The text below walks through data of ChEMBL document CHEMBL2073975, “Inflammatory cytokines, but not bile acids, regulate expression of murine hepatic anion transporters in endotoxemia” (J Pharmacol Exp Ther, 2002).

ATP-binding cassette sub-family C member 3, sequence (B2RX12 whole entry): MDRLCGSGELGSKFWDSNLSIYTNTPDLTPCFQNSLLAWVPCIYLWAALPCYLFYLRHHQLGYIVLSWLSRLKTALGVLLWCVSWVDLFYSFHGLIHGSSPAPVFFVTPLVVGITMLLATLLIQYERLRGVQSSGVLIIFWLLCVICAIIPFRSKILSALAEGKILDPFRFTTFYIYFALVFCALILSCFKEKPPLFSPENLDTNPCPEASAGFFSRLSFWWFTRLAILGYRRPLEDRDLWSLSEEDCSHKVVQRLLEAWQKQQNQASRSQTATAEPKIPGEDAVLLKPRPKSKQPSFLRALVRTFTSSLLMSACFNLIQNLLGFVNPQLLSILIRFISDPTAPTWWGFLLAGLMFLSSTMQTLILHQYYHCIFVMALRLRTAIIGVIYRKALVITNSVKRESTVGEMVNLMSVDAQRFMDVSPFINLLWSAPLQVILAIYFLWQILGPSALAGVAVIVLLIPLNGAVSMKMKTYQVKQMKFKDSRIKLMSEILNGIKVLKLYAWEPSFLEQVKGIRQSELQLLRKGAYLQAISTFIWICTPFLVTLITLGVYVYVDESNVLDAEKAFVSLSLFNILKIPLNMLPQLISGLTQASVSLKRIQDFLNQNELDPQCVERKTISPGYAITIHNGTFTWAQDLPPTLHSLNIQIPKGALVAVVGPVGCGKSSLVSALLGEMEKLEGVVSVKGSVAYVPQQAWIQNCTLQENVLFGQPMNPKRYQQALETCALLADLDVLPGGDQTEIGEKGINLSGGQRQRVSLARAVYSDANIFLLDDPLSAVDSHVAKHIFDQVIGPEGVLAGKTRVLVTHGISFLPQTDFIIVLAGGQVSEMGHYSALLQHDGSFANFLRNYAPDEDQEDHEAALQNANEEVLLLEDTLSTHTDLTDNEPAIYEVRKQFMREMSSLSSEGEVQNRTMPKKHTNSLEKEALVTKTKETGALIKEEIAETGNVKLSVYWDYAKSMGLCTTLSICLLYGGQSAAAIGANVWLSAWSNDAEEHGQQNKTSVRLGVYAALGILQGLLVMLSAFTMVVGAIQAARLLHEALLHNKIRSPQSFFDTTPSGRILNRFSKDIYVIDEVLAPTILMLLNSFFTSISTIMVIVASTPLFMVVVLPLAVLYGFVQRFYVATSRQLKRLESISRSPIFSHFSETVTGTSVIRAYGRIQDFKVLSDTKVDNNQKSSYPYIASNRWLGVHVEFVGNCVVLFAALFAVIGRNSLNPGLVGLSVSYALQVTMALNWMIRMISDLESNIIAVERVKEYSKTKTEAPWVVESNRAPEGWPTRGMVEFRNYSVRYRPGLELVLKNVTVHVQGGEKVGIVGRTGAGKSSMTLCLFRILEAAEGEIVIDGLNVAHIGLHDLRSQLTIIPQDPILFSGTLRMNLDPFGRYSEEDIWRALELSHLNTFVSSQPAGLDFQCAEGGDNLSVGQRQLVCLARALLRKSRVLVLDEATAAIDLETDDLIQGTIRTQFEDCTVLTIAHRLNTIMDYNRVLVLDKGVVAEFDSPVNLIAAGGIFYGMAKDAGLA
ATP-binding cassette sub-family C member 2, sequence (Q8VI47 whole entry): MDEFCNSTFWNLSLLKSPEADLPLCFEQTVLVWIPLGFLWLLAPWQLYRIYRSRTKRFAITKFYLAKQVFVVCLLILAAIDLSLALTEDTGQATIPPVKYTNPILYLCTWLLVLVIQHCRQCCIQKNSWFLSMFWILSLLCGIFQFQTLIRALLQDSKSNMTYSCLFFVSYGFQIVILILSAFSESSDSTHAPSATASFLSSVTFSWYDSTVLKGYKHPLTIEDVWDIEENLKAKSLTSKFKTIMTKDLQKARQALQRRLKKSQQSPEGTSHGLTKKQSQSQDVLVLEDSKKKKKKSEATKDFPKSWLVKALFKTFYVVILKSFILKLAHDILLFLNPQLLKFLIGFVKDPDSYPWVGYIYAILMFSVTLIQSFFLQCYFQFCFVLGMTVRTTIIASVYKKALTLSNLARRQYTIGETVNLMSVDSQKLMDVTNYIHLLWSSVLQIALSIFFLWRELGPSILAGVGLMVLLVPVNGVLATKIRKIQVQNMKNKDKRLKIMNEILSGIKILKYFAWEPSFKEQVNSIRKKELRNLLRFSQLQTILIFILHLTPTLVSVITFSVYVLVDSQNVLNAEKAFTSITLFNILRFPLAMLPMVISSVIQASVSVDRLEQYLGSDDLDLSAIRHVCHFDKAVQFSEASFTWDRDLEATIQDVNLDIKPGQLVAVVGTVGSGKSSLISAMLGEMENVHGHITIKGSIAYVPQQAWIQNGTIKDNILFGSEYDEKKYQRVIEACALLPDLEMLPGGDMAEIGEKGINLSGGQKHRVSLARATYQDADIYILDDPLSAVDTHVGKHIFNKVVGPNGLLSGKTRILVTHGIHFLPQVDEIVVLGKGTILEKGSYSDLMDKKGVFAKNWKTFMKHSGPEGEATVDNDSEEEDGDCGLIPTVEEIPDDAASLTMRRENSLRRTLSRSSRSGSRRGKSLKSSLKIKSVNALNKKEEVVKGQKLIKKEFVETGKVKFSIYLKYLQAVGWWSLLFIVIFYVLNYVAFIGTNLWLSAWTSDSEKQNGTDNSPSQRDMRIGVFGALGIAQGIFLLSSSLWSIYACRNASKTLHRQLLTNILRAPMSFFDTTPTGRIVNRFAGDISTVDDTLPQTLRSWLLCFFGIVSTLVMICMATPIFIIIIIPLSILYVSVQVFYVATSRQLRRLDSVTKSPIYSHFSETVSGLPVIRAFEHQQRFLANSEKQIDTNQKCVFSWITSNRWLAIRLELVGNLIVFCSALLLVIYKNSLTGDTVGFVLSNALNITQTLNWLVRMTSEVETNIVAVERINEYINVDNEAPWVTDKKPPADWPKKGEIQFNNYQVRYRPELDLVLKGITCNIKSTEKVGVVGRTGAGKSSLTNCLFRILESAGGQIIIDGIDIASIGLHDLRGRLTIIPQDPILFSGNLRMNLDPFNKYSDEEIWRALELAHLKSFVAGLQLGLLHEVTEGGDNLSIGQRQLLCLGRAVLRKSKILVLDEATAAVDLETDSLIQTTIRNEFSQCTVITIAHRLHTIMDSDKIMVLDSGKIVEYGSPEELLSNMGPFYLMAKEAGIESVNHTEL
Multidrug resistance-associated protein 1, sequence (O35379 whole entry): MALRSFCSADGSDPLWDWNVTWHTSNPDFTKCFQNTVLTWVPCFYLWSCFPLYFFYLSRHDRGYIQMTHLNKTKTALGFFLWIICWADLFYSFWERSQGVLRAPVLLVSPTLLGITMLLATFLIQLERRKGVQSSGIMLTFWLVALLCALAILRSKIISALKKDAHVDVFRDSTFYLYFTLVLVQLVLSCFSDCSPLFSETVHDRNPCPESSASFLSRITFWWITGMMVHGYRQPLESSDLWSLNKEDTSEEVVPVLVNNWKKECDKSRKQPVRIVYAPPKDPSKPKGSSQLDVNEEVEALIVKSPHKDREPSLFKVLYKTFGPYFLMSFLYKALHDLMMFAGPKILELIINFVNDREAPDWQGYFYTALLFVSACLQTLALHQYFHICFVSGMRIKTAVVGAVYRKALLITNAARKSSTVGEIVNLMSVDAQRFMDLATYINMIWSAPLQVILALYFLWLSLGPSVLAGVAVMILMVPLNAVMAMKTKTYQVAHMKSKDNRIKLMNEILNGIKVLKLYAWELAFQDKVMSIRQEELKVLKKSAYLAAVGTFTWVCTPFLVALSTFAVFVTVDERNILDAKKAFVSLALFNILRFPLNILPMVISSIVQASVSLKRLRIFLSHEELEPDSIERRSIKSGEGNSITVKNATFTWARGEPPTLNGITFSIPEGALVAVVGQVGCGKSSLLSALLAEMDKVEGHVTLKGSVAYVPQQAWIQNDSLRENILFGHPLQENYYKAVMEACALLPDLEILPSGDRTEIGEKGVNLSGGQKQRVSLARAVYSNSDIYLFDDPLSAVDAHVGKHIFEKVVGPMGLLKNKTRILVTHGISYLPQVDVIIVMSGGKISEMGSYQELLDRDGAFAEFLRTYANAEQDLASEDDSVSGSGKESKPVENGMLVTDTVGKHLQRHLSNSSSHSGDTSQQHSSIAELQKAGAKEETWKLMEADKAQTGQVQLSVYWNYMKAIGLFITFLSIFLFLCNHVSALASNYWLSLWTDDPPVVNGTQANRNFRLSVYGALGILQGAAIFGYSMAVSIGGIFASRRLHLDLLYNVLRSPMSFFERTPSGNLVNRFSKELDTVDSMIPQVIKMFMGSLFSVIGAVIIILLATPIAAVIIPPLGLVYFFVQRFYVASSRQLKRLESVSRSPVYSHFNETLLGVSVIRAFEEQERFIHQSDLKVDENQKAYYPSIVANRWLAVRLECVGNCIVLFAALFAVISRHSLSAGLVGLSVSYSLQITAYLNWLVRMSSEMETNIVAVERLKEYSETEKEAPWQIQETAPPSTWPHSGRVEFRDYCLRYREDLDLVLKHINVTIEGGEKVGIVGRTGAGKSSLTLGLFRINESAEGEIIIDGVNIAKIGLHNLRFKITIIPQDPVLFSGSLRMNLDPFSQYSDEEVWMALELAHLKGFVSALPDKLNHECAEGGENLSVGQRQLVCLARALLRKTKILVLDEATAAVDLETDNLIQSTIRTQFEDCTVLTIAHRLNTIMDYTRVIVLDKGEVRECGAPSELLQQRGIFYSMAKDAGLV

Take TURPENTINE: the Activity entry was “inducer [Decrease]” in data set [1]; “is not an inducer [-]” in data set [2]; “inducer [Decrease]” on Bile salt export pump; “inducer [Decrease]” in data set [3]; “inducer [Decrease]” in data set [4].
As for `C[C@H](CCC(=O)NCCS(=O)(=O)O)[C@H]1CC[C@H]2[C@@H]3CC[C@@H]4C[C@H](O)CC[C@]4(C)[C@H]3C[C@H](O)[C@]12C` [TAURODEOXYCHOLIC ACID], the Activity entry in data set [1] is “is not an inducer [-]”; on Bile salt export pump, “inducer [+]”; in data set [5] it was “is not an inducer [-]”; in data set [3], “is not an inducer [-]”; in data set [4] it was “is not an inducer [-]”.
Take INTERLEUKIN 6: the Activity result (in data set [1]; at Bile salt export pump; in data set [3]; in data set [4]) was “inducer [Decrease]” in each case.
As for INTERLEUKIN 1BETA, the Activity entry in data set [1] is “inducer [Decrease]”; in data set [2] it was “is not an inducer [-]”; on Bile salt export pump, “inducer [Decrease]”; in data set [3] it was “inducer [Decrease]”; in data set [4], “inducer [Decrease]”.
Turning to `CCCCCCCCCCCCCC(=O)OC(CCCCCCCCCCC)CC(=O)OC1C(NC(=O)CC(CCCCCCCCCCC)OC(=O)CCCCCCCCCCC)C(OC2CC(OC(=O)CC(O)CCCCCCCCCCC)C(NC(=O)CC(O)CCCCCCCCCCC)C(O)O2)OC(CO)C1OP(=O)(O)O` (stereo not given), the Activity result in data set [1] is “inducer [Decrease]”; in data set [2] it was “inducer [Decrease]”; on Bile salt export pump it was “inducer [Decrease]”; in data set [5], “is not an inducer [-]”; in data set [3], “inducer [Decrease]”; in data set [4], “inducer [Decrease]”.
